Source: patent US20160230227A1, “METHODS OF TREATING ALZHEIMER'S DISEASE” (THE NEW YORK STEM CELL FOUNDATION, priority 2012, published 2016)

Columns and labels:
γ-secretase = target: T1, γ-secretase (Homo sapiens, UniProt P49768); assay: Aβ production in conditioned media by ELISA; format: cell-based; settings: 10 μM, control and PS1 cells
T1 construct: endogenous in cells

[1] = cited from earlier work
[2] = tested on: adult SVZ neural progenitor cells; assay: Primary neurosphere formation of adult SVZ progenitors; format: cell-based; settings: eight-week old mice, in the presence of EGF and FGF, 10 days in vitro, p=0.04
Procedure: (§1) This supports a potential pro-neurogenic role for NDP in adult neurogenesis.
Adult FVB/N mice were killed by cervical dislocation (n=3 per preparation) and their brains removed and placed into Pipes buffer (20 mM Pipes, 25 mM glucose, 0.12M NaCl, 0.5 mM KCl [ph 7.4]). The lateral walls of the lateral ventricles were dissected, collected in Pipes buffer and incubated in a mixture containing 1.2 mL of activated papain and 8.8 ml of Pipes buffer. Papain was activated 20 min in advance by placing 3 mg of papain (Worthington Biochemical) in 1 ml of 1.1 mM EDTA, 5.5 mM cysteine HCl. The pieces of tissue were incubated in papain solution at 37° C. on a rocking platform for 10 min and collected by centrifugation at 1300 rpm for 5 min. The cellular pellet was resuspended in 1 ml of DMEM-F12 (GIBCO) containing 0.7 mg of ovomucoid inhibitor and 1 mg of DNase. The cells were dissociated and neural precursor cells were separated from differentiated cells, myelin and extracellular matrix using density gradient separation by centrifugation step with 22% Percoll. […] The cells were counted and plated in 96well-low attachment plate (Corning) (1.5×10^5/mL) in the same medium containing 10 ng/mL of EGF receptor grade (Millipore) and 10 ng/mL human bFGF (Invitrogen). […] The numbers of neurospheres were counted for six 40× fields/well after 10 days in vitro. […]

human iPSC-derived NPCs = assay: Proliferation of iPSC-derived NPCs (ki67 staining); format: cell-based; settings: d14 NPCs; data not shown
Text: as §1

Na+ channels = format: cell-based, human
7889O neurons = format: cell-based, human

Question: Which Aβ production (γ-secretase) does the source give for `C[C@H](NC(=O)Cc1cc(F)cc(F)c1)C(=O)N[C@H](C(=O)OC(C)(C)C)c1ccccc1` [DAPT] here?
Answer: The Aβ production was “sufficient to block”.

Question: And the Aβ production (γ-secretase; listed as DapT)?
Answer: The Aβ production was “blocks”.

Question: What does the source list for `CC12CC3CC(C)(C1)CC(N)(C3)C2` [Memantine]?
Answer: reported adverse events ([1]; in vivo): infrequent and mild; efficacy in treatment ([1]; moderate to severe Alzheimer's disease): moderately efficacious

Question: Which results are given for “recombinant norrin: recombinant Norrin protein (R&D systems), product of NDP; secreted molecule activating canonical Wnt signaling via Frizzled-4”?
Answer: proliferation as measured by primary neurosphere formation [2]: increased proliferation; proliferation as measured by primary neurosphere formation ([2]; listed as recombinant Norrin protein): induces proliferation; proliferation (ki67 staining) (human iPSC-derived NPCs): did not show differences in proliferation

Question: Which “long lasting outward current after the fast inward current” value (K+ channels) does the source give for tetraethylammonium [TEA] here?
Answer: The value was “cancelled”.

Question: What does the source list for `NC1=N[C@H](O)[C@H]2[C@H]3O[C@]4(O)O[C@@H]([C@@H](O)[C@@]2(N1)[C@@H]4O)[C@]3(O)CO` [TTX, tetrodotoxin]?
Answer: action potentials (Na+ channels): blocked; inward currents (Na+ channels): blocked; kinetics of remaining Ca2+ transients (7889O neurons): generally slower
